# Measurements taken from article PMC11724075, “Small-molecule-induced ERBB4 activation to treat heart failure” (Nature Communications, 2025).
# “And” between values parts separate entries of the source, which are not always exact repeats. Equal values may be shown once.
# How the values were obtained:
# [1] = biological target: T1, ERBB4/ERBB4 (Homo sapiens, UniProt Q15303); experiment: NRG1 dose-response in ERBB4/ERBB4 dimerization assay with co-administration of EF-1; type: cell-based
# T1 construct: host or cells: U2OS (osteosarcoma cells), PathHunter engineered line
# Method: U2OS ERBB4/ERBB4 dimerization cells were seeded at a density of 5 × 10^4 cells/well in 100 µL Cell Plating 0 Reagent, in white 96-well plates (PerkinElmer, 6005680) and incubated for 24 h at 37 °C, 5% CO2. […] Next, 110 µL PathHunter Flash Detection Reagent was added to each well and incubated at RT for 1 h after which the luminescence signal was measured using the Luminoskan Ascent (Thermo Fisher Scientific). Dose-response curves of the compounds were performed in 2-fold (0.0625–32 µM). The same experimental set-up was used for the U2OS ERBB2/ERBB4, U2OS ERBB2/ERBB3 and U2OS ERBB1/ERBB1 dimerization cell lines. […]
# (b) DRC showing t he effect of NRG1 (full line with full circle) on the […]
# 1x10-6 M NRG1; n=5 biological replicates for NRG1 + EF -1 10 µM for all concentrations of NRG1, except […]
# concentrations of NRG1, except n=2 for 3x10-7 M and 1x10-6 M NRG1). All data are presented as mean ± SD. Source data are provided as a Source Data file . CPD, compound; DRC; dose response curve; FC, fold change; F-NRG1, fluorescent ly labeled NRG1; M, molar concentration; NRG1, neuregulin-1; Veh, […]
# [2] = biological target: T1, ERBB4/ERBB4; experiment: PathHunter U2OS ERBB4/ERBB4 dimerization assay, 96-well dose-response; type: cell-based; details: for ERBB4/ERBB4 dimerization signal: relative to signal with 0.1 µM NRG1, single biological replicates
# Method: PathHunter U2OS ERBB4/ERBB4 (osteosarcoma cells; Eurofins, 93-0961C3), U2OS ERBB2/ERBB4 (osteosarcoma cells; Eurofins, 493-0960C3), ERBB2/ERBB3 (osteosarcoma cells; Eurofins, 93-1042C3) and ERBB1/ERBB1 (osteosarcoma cells; Eurofins, 93-0989C3) dimerization cell lines were cultured according to the manufacturer’s instructions. Briefly, cells were cultured in Cell Culture Reagent 103 (Eurofins, 92-3103 G) supplemented with 250 µg/mL Hygromycin B (Eurofins, 92-0029) and 500 µg/mL G418 (Eurofins, 92-0030), and were maintained at 37 °C in humidified atmosphere of 5% CO2. HCFs (Innoprot, P10454) were cultured in fibroblast medium (Innoprot, P60108) supplemented with 10% (v/v) fetal bovine serum (FBS, Innoprot), 10% (v/v) fibroblast growth supplement (Innoprot), and 1% (v/v) penicillin/streptomycin solution (Innoprot). iAMs[33] (kindly provided by LUMC) were cultured in Advanced DMEM F-12 (Thermo Fisher Scientific, 12634028) supplemented with 2% (v/v) heat-inactivated FBS (Thermo Fisher Scientific, 10270106), 1% (v/v) penicillin/streptomycin (10,000 units/mL and 10 mg/mL respectively, Thermo Fisher Scientific, 15140122), 1× GlutaMAX (Thermo Fisher Scientific, 35050061), and 100 ng/mL doxycycline (Tocris, 4090) for proliferation. To induce differentiation, iAMs were transferred to medium without doxycycline.
# U2OS ERBB4/ERBB4 dimerization cells were seeded at a density of 5 × 10^4 cells/well in 100 µL Cell Plating 0 Reagent, in white 96-well plates (PerkinElmer, 6005680) and incubated for 24 h at 37 °C, 5% CO2. […] Next, 110 µL PathHunter Flash Detection Reagent was added to each well and incubated at RT for 1 h after which the luminescence signal was measured using the Luminoskan Ascent (Thermo Fisher Scientific). […] The same experimental set-up was used for the U2OS ERBB2/ERBB4, U2OS ERBB2/ERBB3 and U2OS ERBB1/ERBB1 dimerization cell lines.
# Category Parameter Description
# Assay Type of assay PathHunter Dimerization assays provide a robust, highly sensitive and easy-to-use cell-based functional assay to study various protein activities in a cell. The assay s use
# Enzyme Fragment Complementation technology, where the b-galactosidase (b-gal) enzyme is split into two fragments, ProLink and Enzyme Acceptor. Independently these fragments have no b-gal activity. However, when forced to complement through protein-protein interactions, they form an active b-gal enzyme. The PathHunter Dimerization assay detects ligand induced dimerization of two subunits of a receptor-dimer pair. The cells have been engineered to co-express one receptor subunit (ERBB4) fused to Enzyme
# Donor, and a second dimer partner (ERBB4) fused to Enzyme Acceptor. Binding of an agonist to one receptor subunit induces it to interact with its dimer partner, forcing complementation of the two enzyme […]
# functional enzyme that hydrolyzes a substrate to generate a chemiluminescent signal.
# Target ErbB4 receptor (RTK receptor)
# Primary measurement Detection of chemiluminescent signal, induced by small-molecule ErbB4 agonists
# Key reagents PathHunter Dimerization ErbB4/ErbB4 Cell
# Line (93-0961C3) - PathHunter Flash
# Detection Kit (03 -0247) - AssayComplete Cell
# AssayComplete Cell Detachment Reagent
# (92-0009) - AssayComplete Thawing Reagent
# T3 (92-4103TR) - AssayComplete Freezing
# Assay protocol https://www.discoverx.com/catalog/pathhun
# T1 sequence (Q15303 26-1308): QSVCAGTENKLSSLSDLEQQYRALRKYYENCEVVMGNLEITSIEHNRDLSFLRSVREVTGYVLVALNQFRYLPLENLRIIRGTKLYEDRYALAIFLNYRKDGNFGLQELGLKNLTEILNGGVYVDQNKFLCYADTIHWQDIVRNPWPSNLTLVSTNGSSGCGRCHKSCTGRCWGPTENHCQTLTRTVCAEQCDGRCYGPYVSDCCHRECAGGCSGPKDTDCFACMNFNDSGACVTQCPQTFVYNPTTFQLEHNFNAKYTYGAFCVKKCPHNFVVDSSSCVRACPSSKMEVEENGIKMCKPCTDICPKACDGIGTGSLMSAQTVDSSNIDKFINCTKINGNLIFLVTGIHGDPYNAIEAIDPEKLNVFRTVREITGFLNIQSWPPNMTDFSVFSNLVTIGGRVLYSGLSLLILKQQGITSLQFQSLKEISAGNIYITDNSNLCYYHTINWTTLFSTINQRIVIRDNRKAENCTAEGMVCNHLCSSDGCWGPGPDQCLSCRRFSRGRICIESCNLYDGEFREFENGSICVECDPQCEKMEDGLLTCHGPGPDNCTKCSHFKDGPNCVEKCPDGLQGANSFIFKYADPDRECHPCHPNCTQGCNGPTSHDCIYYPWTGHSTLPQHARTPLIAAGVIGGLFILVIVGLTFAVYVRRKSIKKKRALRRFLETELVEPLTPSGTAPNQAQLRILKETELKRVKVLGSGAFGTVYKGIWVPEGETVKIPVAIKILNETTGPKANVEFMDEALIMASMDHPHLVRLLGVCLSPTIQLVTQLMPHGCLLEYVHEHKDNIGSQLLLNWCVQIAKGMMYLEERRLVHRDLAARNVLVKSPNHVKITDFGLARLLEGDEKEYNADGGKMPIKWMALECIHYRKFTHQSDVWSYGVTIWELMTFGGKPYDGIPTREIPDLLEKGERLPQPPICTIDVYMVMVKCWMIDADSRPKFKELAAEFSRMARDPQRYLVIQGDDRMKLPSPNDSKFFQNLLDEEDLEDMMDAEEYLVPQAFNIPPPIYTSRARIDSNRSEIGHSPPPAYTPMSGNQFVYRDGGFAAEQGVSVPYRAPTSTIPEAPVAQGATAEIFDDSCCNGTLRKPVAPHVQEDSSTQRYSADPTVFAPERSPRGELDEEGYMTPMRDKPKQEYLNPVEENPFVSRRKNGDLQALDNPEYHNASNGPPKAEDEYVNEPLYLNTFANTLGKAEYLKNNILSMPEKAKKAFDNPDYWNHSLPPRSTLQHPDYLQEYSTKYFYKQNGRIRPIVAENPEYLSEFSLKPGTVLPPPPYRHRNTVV
# T1 sequence (Q15303 26-1308): as above
molecule,measurement,setting,value
O=C(NC1CC1)C(Sc1nc2ccccc2c(=O)n1C1CCCC1)c1ccccc1 (stereo not shown) [EF-1],"Chemiluminescence-based competition assay with NRG1 and EF-1, signal","[1]; EF-1 1 µM, NRG1 1e-11 M",0
same,"Chemiluminescence-based competition assay with NRG1 and EF-1, signal","[1]; EF-1 1 µM, NRG1 3e-7 M",96.5132 and 159.12 and 135.867 and 151.14
same,"Chemiluminescence-based competition assay with NRG1 and EF-1, signal","[1]; EF-1 1 µM, NRG1 1e-6 M",151.834 and 150.068 and 166.317
same,"Chemiluminescence-based competition assay with NRG1 and EF-1, signal","[1]; EF-1 10 µM, NRG1 1e-11 M",0
same,"Chemiluminescence-based competition assay with NRG1 and EF-1, signal","[1]; EF-1 10 µM, NRG1 3e-7 M",204.858 and 319.881 and 318.093 and 238.507
same,"Chemiluminescence-based competition assay with NRG1 and EF-1, signal","[1]; EF-1 10 µM, NRG1 1e-6 M",299.545
same,potentiation of NRG1-induced ERBB4 homodimerization,[1]; EF-1 32 µM,299.5%
same,"Chemiluminescence-based competition assay with NRG1 and EF-1, signal","[1]; EF-1 32 µM, NRG1 1e-11 M",0
same,"Chemiluminescence-based competition assay with NRG1 and EF-1, signal","[1]; EF-1 32 µM, NRG1 1e-7 M",179.706 and 213.306 and 260.377 and 233.656 and 250.186
same,"Chemiluminescence-based competition assay with NRG1 and EF-1, signal","[1]; EF-1 32 µM, NRG1 3e-7 M",277.077 and 253.156
same,"Chemiluminescence-based competition assay with NRG1 and EF-1, signal","[1]; EF-1 32 µM, NRG1 1e-6 M",257.842 and 279.551
same,ERBB4/ERBB4 dimerization signal,[2]; 3.125e-8 M,0
same,ERBB4/ERBB4 dimerization signal,[2]; 6.25e-8 M,-1.6 and -0.07 and 2.169 and 1.573
same,ERBB4/ERBB4 dimerization signal,[2]; 1.25e-7 M,-0.55 and -0.15 and 2.599 and 0.9551
same,ERBB4/ERBB4 dimerization signal,[2]; 2.5e-7 M,-1.94 and 0.74 and 2.315 and -0.7582
same,ERBB4/ERBB4 dimerization signal,[2]; 5e-7 M,-0.55 and 0.26 and 2.323 and -0.4275
same,ERBB4/ERBB4 dimerization signal,[2]; 1e-6 M,-2 and 0.47 and 4.362 and -0.05827
same,ERBB4/ERBB4 dimerization signal,[2]; 2e-6 M,1.2 and 2.97 and 7.682 and 3.162
same,ERBB4/ERBB4 dimerization signal,[2]; 4e-6 M,7.41 and 5.76 and 13.8923 and 7.932
same,ERBB4/ERBB4 dimerization signal,[2]; 8e-6 M,16.72 and 8.19 and 23.4633 and 9.465
same,ERBB4/ERBB4 dimerization signal,[2]; 1.6e-5 M,24.8 and 17.62 and 27.6207 and 19.8392
same,ERBB4/ERBB4 dimerization signal,[2]; 3.2e-5 M,30.57 and 22.84 and 33.2287 and 25.0905
same,"Emax, maximum response relative to NRG1",[2]; % of the effect of NRG1,27.9 ± 4.8%
Cc1sc2nc(SC(C)C(=O)NCc3ccc4c(c3)OCO4)n(-c3ccccc3)c(=O)c2c1C (stereo not shown) [NA-1],induction of ERBB4 dimerization (in words),[2],did not activate ERBB4
same,ERBB4/ERBB4 dimerization signal,[2]; 3.125e-8 M,0
same,ERBB4/ERBB4 dimerization signal,[2]; 1.25e-7 M,-1.9 and -5.83
same,ERBB4/ERBB4 dimerization signal,[2]; 5e-7 M,-1.92 and -5.07
same,ERBB4/ERBB4 dimerization signal,[2]; 2e-6 M,-1.85 and -3.89
same,ERBB4/ERBB4 dimerization signal,[2]; 8e-6 M,-1.52 and -5.16
same,ERBB4/ERBB4 dimerization signal,[2]; 3.2e-5 M,-1.83 and -4.37
neuregulin-1 [NRG1],"Chemiluminescence-based competition assay with NRG1 and EF-1, signal","[1]; NRG1 1e-11 M, no EF-1",0
same,"Chemiluminescence-based competition assay with NRG1 and EF-1, signal","[1]; NRG1 1e-7 M, no EF-1",101.055 and 98.9454 and 97.307 and 102.693 and 100 and 86.6131 and 109.42
same,"Chemiluminescence-based competition assay with NRG1 and EF-1, signal","[1]; NRG1 3e-7 M, no EF-1",95.7195 and 99.6882 and 104.291 and 93.5081 and 90.5392 and 120.599 and 107.787
same,"Chemiluminescence-based competition assay with NRG1 and EF-1, signal","[1]; NRG1 1e-6 M, no EF-1",99.5216 and 99.741 and 109.693 and 98.1524
